Experimental data as given in publication PMC11879040, “Advancing systemic toxicity risk assessment: Evaluation of a NAM-based toolbox approach” (Toxicological Sciences, 2024).
Where two headings read alike, the source gives them in different places.

Tests used:
[1] = molecular target: T1, Constitutive androstane receptor CAR, NR1I3 (h) (Homo sapiens, UniProt Q14994); assay type: biochemical
T1 sequence (Q14994 1-352): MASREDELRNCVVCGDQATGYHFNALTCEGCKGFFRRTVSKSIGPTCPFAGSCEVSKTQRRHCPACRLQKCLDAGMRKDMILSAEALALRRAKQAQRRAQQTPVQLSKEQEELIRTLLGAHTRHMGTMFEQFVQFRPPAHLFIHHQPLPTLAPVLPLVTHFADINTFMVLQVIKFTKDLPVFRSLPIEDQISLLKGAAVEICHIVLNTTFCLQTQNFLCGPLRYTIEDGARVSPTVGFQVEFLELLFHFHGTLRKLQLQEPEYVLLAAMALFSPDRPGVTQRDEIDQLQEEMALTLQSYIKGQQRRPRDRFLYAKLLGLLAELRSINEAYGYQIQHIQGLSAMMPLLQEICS

[2] = molecular target: Androgen receptor, AR (h) (Homo sapiens, UniProt P10275); settings: IPP screening at 10 uM; control testosterone
[3] = system: human; settings: human studies; ref [15-18]; cited from earlier work
[4] = at the given pH, single value or median, cited from earlier work
[5] = PBK level L2; taken or scaled from references (median where several); ref [6],[7],[10],[19]; cited from earlier work
[6] = ref [15-18]; cited from earlier work
[7] = system: CYP2B6; settings: PBK level L3, Intrinsic Liver Clearance, ref [12], cited from earlier work
[8] = molecular target: T2, Retinoic Acid Receptor gamma, RARG (h) (Homo sapiens, UniProt P13631); test: IPP RARG binding (assay unavailable by end of study); settings: 10 uM; ligand/control 9-cis-Retinoic acid; ** assay was unavailable by the end of the study
T2 construct: purchased Eurofins Cerep (SafetyScreen44-based IPP panel)

[9] = molecular target: T3, Estrogen receptor beta, ESR2 (h) (Homo sapiens, UniProt Q92731); test: IPP ESR2 coactivator recruitment (agonist); assay type: biochemical; settings: 100 uM, estriol, * denotes assay interference (2-Amino-6-chloro-4-nitrophenol, HC Red 3)
T3 construct: purchased Eurofins Cerep (SafetyScreen44-based IPP panel)

[10] = molecular target: T3, Estrogen receptor beta, ESR2 (h); test: IPP ESR2 coactivator recruitment (antagonist); assay type: biochemical; settings: 100 uM, estriol, * denotes assay interference (2-Amino-6-chloro-4-nitrophenol, HC Red 3)
[11] = PBK model plasma Cmax estimate (Gastroplus 9.8; levels L1, L2, L3); set-up: species or system human; settings: therapeutic uses
[12] = PBK input, levels L2/L3; ref [4]; cited from earlier work
[13] = hepatic intrinsic clearance (Clint); settings: PBK input
[14] = molecular target: T4, Vitamin D3 receptor, VDR (h) (Homo sapiens, UniProt P11473); assay type: biochemical; settings: 10 uM; agonist; calcitriol for control
[15] = molecular target: T4, Vitamin D3 receptor, VDR (h); assay type: biochemical; settings: 10 uM; antagonist; ligand calcitriol

T4 sequence (P11473 whole entry): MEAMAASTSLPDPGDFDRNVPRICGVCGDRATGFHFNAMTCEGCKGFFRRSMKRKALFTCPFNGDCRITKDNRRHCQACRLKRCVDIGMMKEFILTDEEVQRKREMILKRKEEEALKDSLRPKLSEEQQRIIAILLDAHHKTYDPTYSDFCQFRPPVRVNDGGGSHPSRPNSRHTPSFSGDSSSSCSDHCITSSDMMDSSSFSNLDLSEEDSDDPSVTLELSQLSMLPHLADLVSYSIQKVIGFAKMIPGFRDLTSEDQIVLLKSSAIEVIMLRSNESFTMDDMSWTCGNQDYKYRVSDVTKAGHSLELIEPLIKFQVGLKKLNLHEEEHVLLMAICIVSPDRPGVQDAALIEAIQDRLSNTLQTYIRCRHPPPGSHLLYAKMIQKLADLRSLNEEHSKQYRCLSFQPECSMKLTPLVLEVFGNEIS
T3 sequence (Q92731 whole entry): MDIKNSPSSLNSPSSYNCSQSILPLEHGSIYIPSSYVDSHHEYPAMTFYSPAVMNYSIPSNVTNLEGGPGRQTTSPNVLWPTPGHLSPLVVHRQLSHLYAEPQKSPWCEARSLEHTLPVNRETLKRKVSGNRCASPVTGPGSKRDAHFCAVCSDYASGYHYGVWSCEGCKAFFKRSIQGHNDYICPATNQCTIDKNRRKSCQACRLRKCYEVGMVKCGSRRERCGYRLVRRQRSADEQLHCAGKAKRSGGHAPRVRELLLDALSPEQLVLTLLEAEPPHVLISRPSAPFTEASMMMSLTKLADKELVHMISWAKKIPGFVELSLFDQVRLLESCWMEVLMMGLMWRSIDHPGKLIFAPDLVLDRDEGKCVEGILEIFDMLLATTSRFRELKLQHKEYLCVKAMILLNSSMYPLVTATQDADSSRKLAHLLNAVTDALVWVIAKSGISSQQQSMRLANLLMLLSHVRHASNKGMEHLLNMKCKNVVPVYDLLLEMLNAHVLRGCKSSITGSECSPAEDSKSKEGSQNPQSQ
T2 sequence (P13631 whole entry): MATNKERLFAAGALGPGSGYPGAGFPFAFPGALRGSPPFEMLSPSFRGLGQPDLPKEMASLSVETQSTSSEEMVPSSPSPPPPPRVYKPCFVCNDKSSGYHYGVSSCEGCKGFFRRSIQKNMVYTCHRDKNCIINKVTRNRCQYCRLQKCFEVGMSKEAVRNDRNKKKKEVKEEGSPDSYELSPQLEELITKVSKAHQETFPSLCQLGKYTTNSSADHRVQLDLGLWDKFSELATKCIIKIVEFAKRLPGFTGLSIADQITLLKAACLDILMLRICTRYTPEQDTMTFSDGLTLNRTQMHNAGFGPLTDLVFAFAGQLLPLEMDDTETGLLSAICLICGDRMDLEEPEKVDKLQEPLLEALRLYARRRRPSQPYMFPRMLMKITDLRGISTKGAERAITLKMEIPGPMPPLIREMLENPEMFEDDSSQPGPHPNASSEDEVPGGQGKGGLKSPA
Chain of Androgen receptor, AR (h) (P10275 whole entry): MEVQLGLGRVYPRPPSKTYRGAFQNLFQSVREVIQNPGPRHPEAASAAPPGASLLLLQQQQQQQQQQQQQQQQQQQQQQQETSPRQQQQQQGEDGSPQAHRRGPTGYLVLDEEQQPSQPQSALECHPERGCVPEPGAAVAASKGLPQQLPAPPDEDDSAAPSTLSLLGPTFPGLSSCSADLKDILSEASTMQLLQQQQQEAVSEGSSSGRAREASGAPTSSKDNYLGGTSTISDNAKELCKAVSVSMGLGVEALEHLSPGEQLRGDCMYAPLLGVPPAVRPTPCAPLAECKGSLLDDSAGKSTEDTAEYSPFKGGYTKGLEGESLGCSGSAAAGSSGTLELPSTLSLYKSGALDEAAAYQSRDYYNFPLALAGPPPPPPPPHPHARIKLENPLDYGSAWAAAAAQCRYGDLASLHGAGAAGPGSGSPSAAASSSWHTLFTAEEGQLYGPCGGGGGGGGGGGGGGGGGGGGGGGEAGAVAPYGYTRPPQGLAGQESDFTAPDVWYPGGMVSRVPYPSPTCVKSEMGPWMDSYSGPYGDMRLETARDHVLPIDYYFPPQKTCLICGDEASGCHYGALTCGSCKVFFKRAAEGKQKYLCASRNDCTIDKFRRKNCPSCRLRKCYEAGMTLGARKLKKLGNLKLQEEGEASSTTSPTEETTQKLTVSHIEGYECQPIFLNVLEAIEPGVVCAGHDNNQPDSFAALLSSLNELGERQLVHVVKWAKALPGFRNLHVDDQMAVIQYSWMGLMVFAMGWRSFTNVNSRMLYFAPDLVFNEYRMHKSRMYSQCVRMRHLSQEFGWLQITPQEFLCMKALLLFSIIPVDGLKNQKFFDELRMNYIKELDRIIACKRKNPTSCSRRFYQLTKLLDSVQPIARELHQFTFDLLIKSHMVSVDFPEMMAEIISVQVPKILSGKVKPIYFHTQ

Molecule: CCOP(=S)(OCC)Oc1nc(Cl)c(Cl)cc1Cl [Chlorpyrifos, O,O-Diethyl O-(3,5,6-trichloropyridin-2-yl) phosphorothioate]
- IPP screening %, Coactivator recruitment [1]: -5.1%
- Specific binding [2]: 5.8%
- NOAEL [3]: 0.1 mg/kg bw/day
- Aqueous Solubility ([4]; PBK level L2, ref [1],[4],[5],[10],[11],[17],[26]): 1.26 µg/mL
- Aqueous Solubility ([4]; PBK level L3, ref [4],[5],[10],[11]): 1.26 µg/mL
- Intrinsic Liver Clearance [5]: 131.95 L/h
- oral reference dose [6]: 0.01 mg/kg bw/day
- Vmax CYP2B6 (CPFO) [7]: 418 uL/min/nmol CYP
- Km ([7]; read-out: km CYP2B6 (CPFO)): 0.12 µM

Molecule: CC(C)(C)c1ccc(CCOc2ncnc3ccccc23)cc1 [Fenazaquin, 4-[2-(4-tert-Butylphenyl)ethoxy]quinazoline]
- IPP screening %, Specific binding [8]: 35.0%

Molecule: CC1(C)O[C@@H]2[C@@H](CO[C@@]3(COS(N)(=O)=O)OC(C)(C)O[C@@H]23)O1 [Topiramate, [(3aS,5aR,8aR,8bS)-2,2,7,7-Tetramethyltetrahydro-2H,3aH,7H-bis[1,3]dioxolo[4,5-b:4',5'-d]pyran-3a-yl]methyl sulfamate (non-preferred name)]
- IPP screening %, Coactivator recruitment [9]: -2.0%
- IPP screening %, Coactivator recruitment [10]: -10.0%
- underprediction of the L3 result at L2 (Cmax) [11]: ≥ 5 fold
- Fup [12]: 79.5%
- Intrinsic Liver Clearance ([13]; level L2, scaled from [6] internal data (unpublished)): 15.02 L/h
- Intrinsic Liver Clearance ([13]; level L3, optimised based on [39]): 0.874 L/h

Molecule: mixture of 2- and 3-tert-butyl-4-methoxyphenol [Butylated Hydroxyanisole]
- IPP screening %, Coactivator recruitment [14]: -0.1%
- IPP screening %, Coactivator recruitment [15]: 3.0%
